Measurements published in publication PMC10587151, “Ligand activation mechanisms of human KCNQ2 channel” (Nature Communications, 2023).
Counter-ions that a name gives are not always drawn. Like-named read-outs stand apart in the source and are kept apart here.

How the values were obtained:
KCNQ2 [1] = target: T1, KCNQ2 (Homo sapiens, UniProt O43526); assay: cryo-EM structure ([…] Å); whole-cell patch clamp in CHO cells for the EC50; type: cell-based; parameters: residues 64–674; with calmodulin (CaM)
KCNQ2 [2] = target: T1, KCNQ2; assay: as above; type: cell-based; parameters: wild-type human KCNQ2 cDNA in pcDNA5/FRT, expressed in CHO cells, whole-cell patch clamp; no CaM co-transfection stated; not the 64-674 cryo-EM construct
Target sequence in this assay (O43526 whole entry, the tested form may be a part): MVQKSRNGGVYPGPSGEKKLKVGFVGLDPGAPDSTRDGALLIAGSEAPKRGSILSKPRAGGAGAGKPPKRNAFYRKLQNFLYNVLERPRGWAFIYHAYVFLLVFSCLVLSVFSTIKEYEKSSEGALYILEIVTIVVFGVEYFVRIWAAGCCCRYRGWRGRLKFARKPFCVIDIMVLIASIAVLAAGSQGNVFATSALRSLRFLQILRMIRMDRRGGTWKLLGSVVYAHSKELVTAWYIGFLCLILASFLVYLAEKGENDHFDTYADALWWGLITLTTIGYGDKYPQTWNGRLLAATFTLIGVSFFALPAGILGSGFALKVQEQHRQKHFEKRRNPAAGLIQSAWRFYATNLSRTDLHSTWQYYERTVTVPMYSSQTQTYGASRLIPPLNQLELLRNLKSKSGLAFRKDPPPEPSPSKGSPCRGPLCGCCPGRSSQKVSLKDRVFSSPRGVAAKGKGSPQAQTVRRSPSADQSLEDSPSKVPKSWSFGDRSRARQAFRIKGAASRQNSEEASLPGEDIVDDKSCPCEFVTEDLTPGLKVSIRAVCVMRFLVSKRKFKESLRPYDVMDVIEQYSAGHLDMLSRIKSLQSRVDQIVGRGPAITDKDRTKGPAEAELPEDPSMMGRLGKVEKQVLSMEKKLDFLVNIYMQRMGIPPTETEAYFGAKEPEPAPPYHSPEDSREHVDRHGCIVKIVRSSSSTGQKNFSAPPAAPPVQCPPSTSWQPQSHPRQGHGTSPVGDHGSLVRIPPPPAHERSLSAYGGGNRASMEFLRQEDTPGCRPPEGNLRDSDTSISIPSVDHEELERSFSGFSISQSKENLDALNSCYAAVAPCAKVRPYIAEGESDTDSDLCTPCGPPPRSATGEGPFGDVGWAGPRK

KCNQ2 [3] = target: T2, KCNQ2 (Homo sapiens, UniProt O43526, F104A); assay: cryo-EM structure ([…] Å), closed state; type: binding
T2 construct: residues 64–674; with calmodulin (CaM)

KCNQ2 [4] = target: T1, KCNQ2; assay: cryo-EM structure ([…] Å), with CBD co-bound; parameters: residues 64–674; with calmodulin (CaM)
KCNQ2 [5] = target: T2, KCNQ2; assay: cryo-EM structure ([…] Å), open state, with one CBD co-bound; type: binding
[6] = target: the molecule itself; assay: cryo-EM structure; KCNQ2 (strep tag) and CaM (His tag) co-expressed in HEK293S, complex purified on Strep-Tactin and Superose 6 in 20 mM Tris pH 8.0, 150 mM KCl, 0.02% GDN; incubated with 0.25 mM CBD, 0.15 mM HN37 and/or 1 mM PIP2; C4 symmetry; closed and open states

T2 sequence (O43526 64-674 F104A): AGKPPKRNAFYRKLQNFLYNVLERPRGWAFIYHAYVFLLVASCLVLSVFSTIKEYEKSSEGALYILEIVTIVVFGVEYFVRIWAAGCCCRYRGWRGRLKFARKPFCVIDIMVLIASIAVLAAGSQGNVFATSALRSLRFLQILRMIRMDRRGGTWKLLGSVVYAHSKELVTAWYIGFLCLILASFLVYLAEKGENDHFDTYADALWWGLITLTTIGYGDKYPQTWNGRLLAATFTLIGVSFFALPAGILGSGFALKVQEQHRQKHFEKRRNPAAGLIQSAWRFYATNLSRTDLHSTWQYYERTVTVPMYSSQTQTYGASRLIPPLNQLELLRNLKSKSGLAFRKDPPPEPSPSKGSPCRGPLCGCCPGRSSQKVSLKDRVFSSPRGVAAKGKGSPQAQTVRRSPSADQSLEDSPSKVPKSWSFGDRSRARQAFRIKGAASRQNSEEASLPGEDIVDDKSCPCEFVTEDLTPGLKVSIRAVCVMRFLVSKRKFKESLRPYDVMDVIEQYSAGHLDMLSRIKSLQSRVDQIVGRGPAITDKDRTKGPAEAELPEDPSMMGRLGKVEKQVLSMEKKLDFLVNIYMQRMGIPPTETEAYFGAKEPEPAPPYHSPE

Molecule: C#CCN(Cc1ccc(F)cc1)c1cc(C)c(NC(=O)OC)c(C)c1 [HN37]
- EC50 (KCNQ2 [1]): 0.0285 ± 0.00299 µM

Molecule: C=C(C)[C@@H]1CCC(C)=C[C@H]1c1c(O)cc(CCCCC)cc1O [CBD, cannabidiol]
- EC50 (KCNQ2 [2]): 4.5 ± 1.79 µM
- cryo-EM structure (2.7 Å), closed state (KCNQ2 [3]): In both maps, CBDA molecules maintain strong densities but those for CBDB are barely observed

Molecule: CCCCCCCC(=O)OC[C@H](COP(=O)(O)O[C@@H]1[C@H](O)[C@H](O)[C@@H](OP(=O)(O)O)[C@H](OP(=O)(O)O)[C@H]1O)OC(=O)CCCCCCC [PIP2, 1,2-dioctanoyl-sn-glycero-3-phospho-(1’-myo-inositol-4’,5’-bisphosphate) (ammonium salt)]
- cryo-EM structure (3.1 Å), with CBD co-bound (KCNQ2 [4]): between VSD and PD, one PIP2 molecule is assigned, with its fatty acid chains switched by S1III/S4III and S5II
- cryo-EM structure (3.5 Å), open state, with one CBD co-bound (KCNQ2 [5]): KCNQ2-CaMF104A-CBD-PIP2-II is in an open state with the PIP2 bound

B1: human KCNQ2 (residues 64-674, C-terminal strep tag) (domain or fragment, UniProt O43526-1 64-674, looked up)
chain: AGKPPKRNAFYRKLQNFLYNVLERPRGWAFIYHAYVFLLVFSCLVLSVFSTIKEYEKSSEGALYILEIVTIVVFGVEYFVRIWAAGCCCRYRGWRGRLKFARKPFCVIDIMVLIASIAVLAAGSQGNVFATSALRSLRFLQILRMIRMDRRGGTWKLLGSVVYAHSKELVTAWYIGFLCLILASFLVYLAEKGENDHFDTYADALWWGLITLTTIGYGDKYPQTWNGRLLAATFTLIGVSFFALPAGILGSGFALKVQEQHRQKHFEKRRNPAAGLIQSAWRFYATNLSRTDLHSTWQYYERTVTVPMYSSQTQTYGASRLIPPLNQLELLRNLKSKSGLAFRKDPPPEPSPSKGSPCRGPLCGCCPGRSSQKVSLKDRVFSSPRGVAAKGKGSPQAQTVRRSPSADQSLEDSPSKVPKSWSFGDRSRARQAFRIKGAASRQNSEEASLPGEDIVDDKSCPCEFVTEDLTPGLKVSIRAVCVMRFLVSKRKFKESLRPYDVMDVIEQYSAGHLDMLSRIKSLQSRVDQIVGRGPAITDKDRTKGPAEAELPEDPSMMGRLGKVEKQVLSMEKKLDFLVNIYMQRMGIPPTETEAYFGAKEPEPAPPYHSPE
notes: Human voltage-gated potassium channel KCNQ2, N- and C-terminal regions truncated, residues 64-674; numbers count on: NP_004509.2; The vector is a modified pEZT-BM; also called WT KCNQ2; KCNQ2 of the KCNQ2-CaM complex; source: HEK293S suspension cells, BacMam baculovirus, co-expressed with CaM, purified (Strep-Tactin, Superose 6); not shown: strep tag, C-terminal, kept
- stoichiometry N [6]: 4
